Experimental data from US7709491B2, “Substituted quinazolines as antiviral agents, especially against cytomegaloviruses” (Bayer Schering Pharma Aktiengesellschaft, priority 2002, dated 2010).

What was measured:
[1] = Cytotoxicity on NHDF cells in the anti-HCMV cytopathogenicity test; format: cell-based; conditions: human, NHDF cells (human prepuce fibroblasts), 6 days incubation, visual assessment of cytotoxic effects vs untreated cell control
Method: (§1) Anti-HCMV (Anti-Human Cytomegalovirus) Cytopathogenicity Tests The test compounds are employed as 50 millimolar (mM) solutions in dimethyl sulfoxide (DMSO). Ganciclovir, foscamet and cidofovir are used as reference compounds. After addition of in each case 2 μl of the 50, 5, 0.5 and 0.05 mM DMSO stock solutions to 98 μl portions of cell culture medium in row […] for duplicate determinations, 1:2 dilutions are carried out with 50 μl portions of medium up to row 11 of the 96-well plate. The wells in rows 1 and 12 each contain 50 μl of medium. 150 μl of a suspension of 1×10^4 cells (human prepuce fibroblasts [NHDF]) are then pipetted into each of the wells (row 1=cell control) and, in rows 2-12, a mixture of HCMV-infected and uninfected NHDF cells (M.O.I.=0.001-0.002), i.e. 1-2 infected cells per 1000 uninfected cells. Row 12 (without substance) serves as virus control. The final test concentrations are 250-0.0005 μM. The plates are incubated at 37° C./5% CO2 for 6 days, i.e. until all the cells are infected in the virus controls (100% cytopathogenic effect [CPE]). The wells are then fixed and stained by adding a mixture of formalin and Giemsa's dye (30 minutes), washed with double-distilled water and dried in a drying oven at 50° C. The plates are then assessed visually using an overhead microscope (plaque multiplier from Technomara). The following data can be acquired from the test plates: CC50 (NHDF)=substance concentration in […] at which no visible cytotoxic effects on the cells are evident by comparison with the untreated cell control;

HCMV = experiment: Anti-HCMV cytopathogenicity test; format: cell-based, human cytomegalovirus; conditions: for EC50: inhibition of CPE by 50% vs untreated virus control, HCMV-infected NHDF cells, M.O.I. 0.001-0.002, 6 days; for SI HCMV (selectivity index = CC50 (NHDF)/EC50 (HCMV)): ratio CC50 (NHDF)/EC50 (HCMV)
Method: Anti-HCMV (Anti-Human Cytomegalovirus) Cytopathogenicity Tests The test compounds are employed as 50 millimolar (mM) solutions in dimethyl sulfoxide (DMSO). Ganciclovir, foscamet and cidofovir are used as reference compounds. After addition of in each case 2 μl of the 50, 5, 0.5 and 0.05 mM DMSO stock solutions to 98 μl portions of cell culture medium in row […] for duplicate determinations, 1:2 dilutions are carried out with 50 μl portions of medium up to row 11 of the 96-well plate. The wells in rows 1 and 12 each contain 50 μl of medium. 150 μl of a suspension of 1×10^4 cells (human prepuce fibroblasts [NHDF]) are then pipetted into each of the wells (row 1=cell control) and, in rows 2-12, a mixture of HCMV-infected and uninfected NHDF cells (M.O.I.=0.001-0.002), i.e. 1-2 infected cells per 1000 uninfected cells. Row 12 (without substance) serves as virus control. The final test concentrations are 250-0.0005 μM. The plates are incubated at 37° C./5% CO2 for 6 days, i.e. until all the cells are infected in the virus controls (100% cytopathogenic effect [CPE]). The wells are then fixed and stained by adding a mixture of formalin and Giemsa's dye (30 minutes), washed with double-distilled water and dried in a drying oven at 50° C. The plates are then assessed visually using an overhead microscope (plaque multiplier from Technomara). The following data can be acquired from the test plates: EC50 (HCMV)=substance concentration in μM which inhibits the CPE (cytopathic effect) by 50% compared with the untreated virus control; SI (selectivity index)=CC50 (NHDF)/EC50 (HCMV).

[2] = test system: NHDF cells (human prepuce fibroblasts); experiment: Cytotoxicity on NHDF cells in the anti-HCMV cytopathogenicity test; format: cell-based; conditions: 6 days incubation, visual assessment of cytotoxic effects vs untreated cell control
Method: as §1

[3] = Human betaherpesvirus 5, NHDF, 144 h

| Compound | CC50 at 6 days [1] [µM] | EC50 (HCMV; [3]) [µM] | SI HCMV (selectivity index = CC50 (NHDF)/EC50 (HCMV)) (HCMV) | CC50 [2] [µM] | EC50 (HCMV) [µM] |
| --- | --- | --- | --- | --- | --- |
| COc1ccc(C(F)(F)F)cc1N1C(c2ccc(-c3ccc(F)cc3)cc2)=Nc2c(F)cccc2C1CC(=O)O (racemic) [Example 32, {2-[4-(4-Fluorophenyl)phenyl]-8-fluoro-3-[2-methoxy-5-(trifluoromethyl)phenyl]-3,4-dihydro-4-quinazolinyl}acetic acid] | 15 | 0.01 | 1500 |  |  |
| O=C(O)CC1c2cccc(F)c2N=C(c2ccc(-c3ccc(F)cc3)cc2F)N1c1cccc(C(F)(F)F)c1 (stereo not drawn) [Example 7, {2-(3,4′-Difluoro-1,1′-biphenyl-4-yl)-8-fluoro-3-[3-(trifluoromethyl)phenyl]-3,4-dihydro-4-quinazolinyl}acetic acid] | 31 | 1.8 | 17 |  |  |
| Cc1cc(-c2ccc(C3=Nc4c(F)cccc4C(CC(=O)O)N3c3cccc(C(F)(F)F)c3)cc2)ccc1F (stereo not drawn) [Example 5, {8-Fluoro-2-(4′-fluoro-3′-methyl-1,1′-biphenyl-4-yl)-3-[3-(trifluoromethyl)phenyl]-3,4-dihydro-4-quinazolinyl}acetic acid] | 12 | 0.74 | 16 |  |  |
| COc1cccc(-c2ccc(C3=Nc4c(F)cccc4C(CC(=O)O)N3c3cc(C(F)(F)F)ccc3OC)cc2)c1 (racemic) [Example 36, {2-[4-(3-Methoxyphenyl)phenyl]-8-fluoro-3-[2-methoxy-5-(trifluoromethyl)phenyl]-3,4-dihydro-4-quinazolinyl}acetic acid] | 15 | 0.01 | 1500 |  |  |
| O=C(O)CC1c2cccc(F)c2N=C(c2ccc(-c3cccc(F)c3)cc2)N1c1cccc(C(F)(F)F)c1 (stereo not drawn) [Example 6, {8-Fluoro-2-(3′-fluoro-1,1′-biphenyl-4-yl)-3-[3-(trifluoromethyl)phenyl]-3,4-dihydro-4-quinazolinyl}acetic acid] | 12 | 0.35 | 34 |  |  |
| Cc1cccc(-c2ccc(C3=Nc4c(F)cccc4C(CC(=O)O)N3c3cccc(C(F)(F)F)c3)cc2)c1 (racemic) [Example 4, {8-Fluoro-2-(3′-methyl-1,1′-biphenyl-4-yl)-3-[3-(trifluoromethyl)phenyl]-3,4-dihydro-4-quinazolinyl}acetic acid] |  |  | 143 | 8.6 | 0.06 |
| O=C(O)CC1c2cccc(F)c2N=C(c2ccc(-c3ccc(F)cc3)cc2)N1c1cccc(C(F)(F)F)c1 (racemic) [Example 1] | 15 | 0.1 | 150 |  |  |
| Cc1cccc(-c2ccc(C3=Nc4c(F)cccc4C(CC(=O)O)N3c3cccc(C(F)(F)F)c3)cc2)c1 (racemic) [Example 3, {8-Fluoro-2-(3′-methyl-1,1′-biphenyl-4-yl)-3-[3-(trifluoromethyl)phenyl]-3,4-dihydro-4-quinazolinyl}acetic acid] | 15 |  | 115 |  | 0.13 |
| O=C(O)CC1c2cccc(F)c2N=C(c2ccc(-c3ccc(F)cc3)cc2)N1c1cccc(C(F)(F)F)c1 (racemic) [Example 2, {8-Fluoro-2-(4′-fluoro-1,1′-biphenyl-4-yl)-3-[3-(trifluoromethyl)phenyl]-3,4-dihydro-4-quinazolinyl}acetic acid] |  |  | 171 | 12 | 0.07 |
